Key:
Homo sapiens = species on record: Homo sapiens; experiment: Selectivity index, ratio of IC50 for human recombinant MAO-A to IC50 for human recombinant MAO-B
[1] = biological target: T1, Amine oxidase [flavin-containing] A (Rattus norvegicus, UniProt P21396); experiment: Inhibition of rat MAO-A from mitochondria-enriched rat liver fractions using p-tyraimne substrate
T1 sequence (P21396 whole entry): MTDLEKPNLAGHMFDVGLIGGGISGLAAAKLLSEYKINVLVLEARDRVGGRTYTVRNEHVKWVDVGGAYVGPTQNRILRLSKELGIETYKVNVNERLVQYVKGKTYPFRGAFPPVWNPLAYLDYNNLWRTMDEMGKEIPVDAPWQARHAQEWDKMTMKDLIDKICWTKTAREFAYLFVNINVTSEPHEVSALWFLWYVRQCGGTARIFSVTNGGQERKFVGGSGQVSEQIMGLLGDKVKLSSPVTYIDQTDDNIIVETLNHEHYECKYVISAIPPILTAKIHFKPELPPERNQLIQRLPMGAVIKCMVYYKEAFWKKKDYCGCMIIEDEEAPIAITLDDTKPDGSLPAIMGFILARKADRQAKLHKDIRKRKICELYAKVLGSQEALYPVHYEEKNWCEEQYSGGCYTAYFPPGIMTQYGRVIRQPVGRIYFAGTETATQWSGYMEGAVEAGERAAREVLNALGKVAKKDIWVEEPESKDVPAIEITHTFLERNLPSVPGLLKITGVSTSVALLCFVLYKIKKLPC

[2] = biological target: T2, Amine oxidase [flavin-containing] B (Homo sapiens, UniProt P27338); experiment: Reversible inhibition of human recombinant MAO-B expressed in baculovirus-infected insect cells using p-tyraimne substrate at 1 nM for 22 mins; conditions: 0.001 µM
T2 sequence (P27338 whole entry): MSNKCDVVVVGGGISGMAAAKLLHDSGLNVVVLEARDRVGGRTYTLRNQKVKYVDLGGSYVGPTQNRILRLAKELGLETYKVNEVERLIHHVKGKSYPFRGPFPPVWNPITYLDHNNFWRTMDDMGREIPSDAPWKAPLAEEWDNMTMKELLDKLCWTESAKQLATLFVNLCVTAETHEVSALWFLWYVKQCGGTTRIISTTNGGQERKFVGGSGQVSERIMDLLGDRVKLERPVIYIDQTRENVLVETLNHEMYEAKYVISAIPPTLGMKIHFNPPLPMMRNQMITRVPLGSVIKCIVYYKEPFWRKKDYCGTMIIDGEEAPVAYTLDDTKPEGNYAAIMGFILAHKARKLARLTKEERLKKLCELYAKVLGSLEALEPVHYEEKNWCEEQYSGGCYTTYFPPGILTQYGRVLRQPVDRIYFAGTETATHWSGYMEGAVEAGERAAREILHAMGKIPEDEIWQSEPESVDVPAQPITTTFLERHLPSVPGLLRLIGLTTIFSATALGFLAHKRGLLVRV

[3] = biological target: T3, Amine oxidase [flavin-containing] A (Homo sapiens, UniProt P21397); experiment: Inhibition of human recombinant MAO-A expressed in baculovirus-infected insect cells using p-tyraimne substrate
T3 sequence (P21397 whole entry): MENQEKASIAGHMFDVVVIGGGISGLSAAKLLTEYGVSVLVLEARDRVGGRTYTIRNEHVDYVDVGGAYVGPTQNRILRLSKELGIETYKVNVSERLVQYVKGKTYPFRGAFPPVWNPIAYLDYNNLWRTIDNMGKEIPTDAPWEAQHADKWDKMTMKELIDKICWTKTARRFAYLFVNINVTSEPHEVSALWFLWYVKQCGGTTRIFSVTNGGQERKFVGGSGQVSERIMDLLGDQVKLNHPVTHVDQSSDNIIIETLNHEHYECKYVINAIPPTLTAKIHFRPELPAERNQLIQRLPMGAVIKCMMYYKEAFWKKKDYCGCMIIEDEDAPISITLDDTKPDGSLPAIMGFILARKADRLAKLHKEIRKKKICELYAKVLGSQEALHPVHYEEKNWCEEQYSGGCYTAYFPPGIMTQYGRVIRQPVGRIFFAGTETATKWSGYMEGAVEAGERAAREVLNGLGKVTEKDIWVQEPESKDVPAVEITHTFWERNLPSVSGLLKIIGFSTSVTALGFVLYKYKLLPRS

[4] = biological target: T4, Amine oxidase [flavin-containing] B (Rattus norvegicus, UniProt P19643); experiment: Inhibition of rat MAO-B from mitochondria-enriched rat liver fractions using p-tyraimne substrate
T4 sequence (P19643 whole entry): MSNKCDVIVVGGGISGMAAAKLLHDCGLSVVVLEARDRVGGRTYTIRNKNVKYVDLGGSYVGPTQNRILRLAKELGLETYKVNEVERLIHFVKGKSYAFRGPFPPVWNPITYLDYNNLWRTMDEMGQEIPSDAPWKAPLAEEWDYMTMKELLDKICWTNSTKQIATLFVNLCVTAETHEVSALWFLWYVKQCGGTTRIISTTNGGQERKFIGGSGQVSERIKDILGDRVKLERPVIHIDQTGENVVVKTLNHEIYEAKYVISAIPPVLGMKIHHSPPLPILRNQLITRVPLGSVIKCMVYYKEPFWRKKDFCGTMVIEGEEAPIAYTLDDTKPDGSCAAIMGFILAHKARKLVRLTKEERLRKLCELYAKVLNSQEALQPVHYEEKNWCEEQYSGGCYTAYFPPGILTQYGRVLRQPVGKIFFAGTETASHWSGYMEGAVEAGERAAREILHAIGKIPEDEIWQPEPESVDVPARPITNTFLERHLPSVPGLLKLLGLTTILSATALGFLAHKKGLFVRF

[5] = biological target: T2, Amine oxidase [flavin-containing] B; experiment: biochemical; type: cell-based
Description: Inhibition of human recombinant MAO-B expressed in baculovirus-infected insect cells using p-tyraimne substrate

[6] = biological target: T4, Amine oxidase [flavin-containing] B; experiment: Inhibition of rat MAO-B in rat-liver mitochondrial-fraction using [14C]-PEA substrate
[7] = biological target: T1, Amine oxidase [flavin-containing] A; experiment: Inhibition of rat MAO-A in rat-liver mitochondrial-fraction using [14C]-5-HT substrate

Row | Ratio IC50 (Homo sapiens) | IC50 [1] [µM] | IC50 ([3]; read-out: IC50) [µM] | IC50 [4] [µM] | IC50 [5] [µM] | IC50 [6] [µM] | IC50 [7] [µM] | IC50 [3] | Compound | inhibition (INH) [2]
1 | > 54 |  |  |  |  |  |  |  | COc1ccc(NC(=O)c2ccc3[nH]ncc3c2)cc1OC | 
2 | 6290 |  |  |  |  |  |  |  | O=C(Nc1ccc(F)c(F)c1)c1ccc2[nH]ncc2c1 | 
3 | 3640 | > 10 | > 10 | 0.00273 | 0.00275 |  |  |  | O=C(Nc1cc(Cl)cc(Cl)c1)c1ccc2[nH]ncc2c1 | 
4 | 2020 |  |  |  |  |  |  |  | COc1cc(NC(=O)c2ccc3[nH]ncc3c2)ccc1Cl | 
5 | > 81 |  |  |  |  |  |  |  | O=C(Nc1ccc(O)c(Cl)c1)c1ccc2[nH]ncc2c1 | 
6 | > 31 | > 10 | > 10 | 2.67 | 0.316 |  |  |  | O=C(Nc1ccc(Cl)c(F)c1)c1ccc2cn[nH]c2c1 | 
7 | 2920 |  |  |  |  |  |  |  | COc1ccc(NC(=O)c2ccc3[nH]ncc3c2)cc1Cl | 
8 | 15000 |  | > 10 |  |  |  |  |  | O=C(Nc1ccc(Cl)c(F)c1)c1ccc2[nH]ncc2c1 | 
9 | 80 |  |  |  |  |  |  |  | O=C(Nc1ccc(Cl)c(O)c1)c1ccc2[nH]ncc2c1 | 
10 |  | > 10 | > 10 | > 10 | > 10 |  |  |  | Cn1cc(C(=O)Nc2ccc3[nH]ncc3c2)ccc1=O | 
11 |  | > 10 | > 10 | 3.28 | < 10 |  |  |  | O=C(Nc1ccc(O)c(Cl)c1)c1ccc2cn[nH]c2c1 | 
12 | > 86 | > 10 | > 10 | 0.708 | 0.117 |  |  |  | O=C(Nc1ccccc1)c1ccc2[nH]ncc2c1 | 
13 | 806 | > 10 | > 10 | 0.138 | 0.0124 |  |  |  | O=C(Nc1ccc2[nH]ncc2c1)c1ccc(Cl)c(Cl)c1 | 

The next lines start with the compound.

Row | Compound | Ratio IC50 (Homo sapiens) | IC50 [1] [µM] | IC50 ([3]; read-out: IC50) [µM] | IC50 [4] [µM] | IC50 [5] [µM] | IC50 [6] [µM] | IC50 [7] [µM] | IC50 [3] | inhibition (INH) [2]
14 | O=C(Nc1ccc(Cl)c(Cl)c1)c1ccc2[nH]ncc2c1 | 17100 | > 10 | ≥ 10 | 0.00143 |  |  |  |  | Active
15 | O=C(Nc1ccc(Cl)c(O)c1)c1ccc2cn[nH]c2c1 | 2 | > 10 | > 10 | > 10 | 6.22 |  |  |  | 
16 | COc1ccc(NC(=O)c2ccc3cn[nH]c3c2)cc1Cl | 8 | > 10 | > 10 | < 10 | 1.28 |  |  |  | 
17 | Cn1ncc2cc(/C=N/c3ccc(Cl)c(Cl)c3)ccc21 | 9710 | > 10 | < 10 | 0.00455 | 0.00103 |  |  |  | 
18 | O=C(Nc1cnc(Cl)c(Cl)c1)c1ccc2[nH]ncc2c1 | 1840 |  |  |  |  |  |  |  | 
19 | O=C(Nc1ccc2cn[nH]c2c1)c1cnc(N2CCOCC2)c(Cl)c1 | > 9 | > 10 | > 10 | 1.99 | 0.22 |  |  |  | 
20 | O=C(NCc1ccc(Cl)c(Cl)c1)c1ccc2[nH]ncc2c1 | > 25 | > 10 | > 10 | 0.837 | 0.388 |  |  |  | 
21 | O=C(Nc1ccc(F)c(F)c1)c1ccc2cn[nH]c2c1 | > 7 | > 10 | > 10 | < 10 | 1.3 |  |  |  | 
22 | Cn1ccc2cc(C(=O)Nc3ccc(Cl)c(Cl)c3)ccc21 | 4420 | > 10 | > 10 | 0.00111 | 0.00226 |  |  |  | 
23 | O=C(Nc1ccc(F)c(Cl)c1)c1ccc2cn[nH]c2c1 | > 42 | > 10 | > 10 | 1.07 | 0.234 |  |  |  | 
24 | O=C(Cc1ccc(Cl)c(Cl)c1)Nc1ccc2[nH]ncc2c1 | > 11 | > 10 | > 10 | > 10 | 0.882 |  |  |  | 
25 | C#CCNCc1cc2cc(OCc3ccccc3)ccc2[nH]1 |  |  |  |  |  | 1.25 | 0.022 |  | 
26 | O=[N+]([O-])c1ccc2[nH]ncc2c1 |  |  |  |  | 2.5 |  |  | Not Active | 
27 | O=C(Nc1ccc(Cl)c(Cl)c1)c1ccc2cn[nH]c2c1 | > 49 | < 10 | 3.31 | 0.466 | 0.0671 |  |  |  | 
28 | O=C(Nc1ccc2[nH]ncc2c1)c1cccc(Cl)c1Cl |  | > 10 | > 10 | > 10 | 2.59 |  |  |  | 
29 | O=C(Nc1ccc(Cl)c(Cl)c1)c1ccc2[nH]ccc2c1 |  | 6.79 | 1.3 | 0.00101 |  |  |  |  | 
30 | O=C(Nc1cc(Cl)cc(Cl)c1)c1ccc2cn[nH]c2c1 | > 29 | > 10 | > 10 | 0.423 | 0.335 |  |  |  | 
31 | O=C(Nc1ccc(Cl)c(Cl)c1)c1ccc2nccn2c1 | 71 | > 10 | > 10 | 1.14 | 0.141 |  |  |  | 
32 | COc1ccc(NC(=O)c2ccc3cn[nH]c3c2)cc1OC |  | > 10 | > 10 | > 10 | > 10 |  |  |  | 
33 | O=C(Nc1ccc(Cl)c(Cl)c1)c1ccc2nncn2c1 | > 4 | > 10 | > 10 | > 10 | 2.27 |  |  |  | 
34 | COc1cc(NC(=O)c2ccc3cn[nH]c3c2)ccc1Cl | 4 | > 10 | > 10 | > 10 | 2.76 |  |  |  | 
35 | Clc1ccc(/N=C/c2ccc3[nH]ncc3c2)cc1Cl |  | > 10 | < 10 |  |  |  |  |  | 
36 | O=C(Nc1ccc2[nH]ncc2c1)c1c(F)cccc1Cl |  | > 10 | > 10 | > 10 | 3.3 |  |  |  | 

Source: ChEMBL document CHEMBL3352205, “Indazole- and indole-5-carboxamides: selective and reversible monoamine oxidase B inhibitors with subnanomolar potency” (J Med Chem, 2014)
